Laboratory results from patent publication US9266835B2, “Quinoline derivatives useful as CB-1 inverse agonists” (JANSSEN PHARMACEUTICA NV, priority 2014, dated 2016).
pEC50: −log10 of the molar value.

How the values were obtained:
[1] = molecular target: Human CB1R (Cannabinoid receptor 1) (Homo sapiens (Human), UniProt P21554); test: CB-1 in vitro cAMP assay (HTRF), inverse agonism; format: cell-based; settings: mean where tested more than once
[2] = molecular target: Human CB2R (Cannabinoid receptor 2) (Homo sapiens (Human), UniProt P34972); test: CB-2 in vitro cAMP assay (HTRF), inverse agonism; format: cell-based; settings: mean where tested more than once
Human CB2R (Cannabinoid receptor 2), sequence (P34972 whole entry): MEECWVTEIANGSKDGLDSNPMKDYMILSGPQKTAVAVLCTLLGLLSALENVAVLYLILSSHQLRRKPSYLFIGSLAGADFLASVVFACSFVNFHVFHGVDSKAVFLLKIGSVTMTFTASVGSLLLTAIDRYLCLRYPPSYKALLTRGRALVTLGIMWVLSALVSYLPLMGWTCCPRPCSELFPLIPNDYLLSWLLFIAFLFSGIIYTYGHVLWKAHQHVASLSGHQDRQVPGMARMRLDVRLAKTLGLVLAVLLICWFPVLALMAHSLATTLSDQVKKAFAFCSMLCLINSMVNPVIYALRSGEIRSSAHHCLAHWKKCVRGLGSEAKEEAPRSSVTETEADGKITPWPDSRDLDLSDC

Human CB1R (Cannabinoid receptor 1), sequence (P21554 whole entry): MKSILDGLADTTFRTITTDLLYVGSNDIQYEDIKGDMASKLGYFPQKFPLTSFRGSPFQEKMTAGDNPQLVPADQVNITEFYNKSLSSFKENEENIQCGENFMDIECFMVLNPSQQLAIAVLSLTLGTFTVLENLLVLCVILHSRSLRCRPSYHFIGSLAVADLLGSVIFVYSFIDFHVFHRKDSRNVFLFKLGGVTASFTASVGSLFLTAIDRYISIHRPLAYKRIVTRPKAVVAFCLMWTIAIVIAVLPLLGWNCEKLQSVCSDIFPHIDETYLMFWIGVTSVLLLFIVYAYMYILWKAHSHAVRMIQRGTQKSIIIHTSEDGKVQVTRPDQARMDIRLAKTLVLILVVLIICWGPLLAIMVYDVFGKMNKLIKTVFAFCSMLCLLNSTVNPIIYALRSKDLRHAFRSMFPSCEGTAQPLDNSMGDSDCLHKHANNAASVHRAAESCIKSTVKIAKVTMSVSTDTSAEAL

| pEC50 [1] | pEC50 [2] | Compound |
| --- | --- | --- |
| 6.64 | 6.12 | O=C(c1ccc(Nc2cc(=O)[nH]c3ccc(C(c4ccc(Cl)cc4)c4ccc(Cl)cc4)cc23)cc1F)N1CCCC1 [Compound 138] |
| 7.28 | 5.27 | O=c1cc(NC2CCN(S(=O)(=O)C(F)(F)F)CC2)c2cc(C(O)(c3ccc(Cl)cc3)c3ccc(Cl)cc3)ccc2[nH]1 [Compound 73, 6-[Bis(4-chlorophenyl)(hydroxy)methyl]-4-({1-[(trifluoromethyl)sulfonyl]-piperidin-4-yl}amino)quinolin-(1H)-one] |
| < 5.00 | < 5.00 | O=C(O)c1ccc(Nc2cc(=O)[nH]c3ccc(C(c4ccc(Cl)cc4)c4ccc(Cl)cc4)cc23)cc1 [Compound 86, 4-({6-[Bis(4-chlorophenyl)methyl]-2-oxo-1,2-dihydroquinolin-4-yl}amino)benzoic acid] |
| 6.64 | < 5.00 | COCCn1c(=O)cc(NC2CCN(S(=O)(=O)C(F)(F)F)CC2)c2cc(C(c3ccc(Cl)cc3)c3ccc(Cl)cc3)ccc21 [Compound 110, 6-(bis(4-chlorophenyl)methyl)-1-(2-methoxyethyl)-4-((1-((trifluoromethyl)sulfonyl)piperidin-4-yl)amino)quinolin-2(1H)-one] |
| 8.15 | < 5.00 | O=c1cc(NC2CCCCC2)c2cc(C(c3ccc(Cl)cc3)c3ccc(Cl)cc3)ccc2[nH]1 [Compound #71, 6-(bis(4-chlorophenyl)methyl)-4-(cyclohexylamino)quinolin-2(1H)-one] |
| 7.00 | 6.69 | COc1cc(C(c2ccc(Cl)cc2)c2ccc(Cl)cc2)cc2c(NC3CCN(S(=O)(=O)C(F)(F)F)CC3)ccnc12 [Compound 536, 6-[bis(4-chlorophenyl)methyl]-8-methoxy-N-[1-(trifluoromethane)sulfonylpiperidin-4-yl]quinolin-4-amine] |
| 6.57 | 5.05 | O=C(O)c1cccc(S(=O)(=O)N2CCC(Nc3cc(=O)[nH]c4ccc(C(c5ccc(Cl)cc5)c5ccc(Cl)cc5)cc34)CC2)c1 [Compound 84, 3-{[4-({6-[Bis(4-chlorophenyl)methyl]-2-oxo-1,2-dihydroquinolin-4-yl}amino)piperidin-1-yl]sulfonyl}benzoic acid] |
| 6.44 | < 5.00 | O=c1cc(Cc2ccc(OC(F)(F)F)cc2)c2cc(C(c3ccc(Cl)cc3)c3nccs3)ccc2[nH]1 (stereo not drawn) [Compound 515, 6-((4-chlorophenyl)(thiazol-2-yl)methyl)-4-(4-(trifluoromethoxy)benzyl)quinolin-2(1H)-one] |
| 6.67 | < 5.00 | FC(F)(F)c1ccc(/C=C/c2ccnc3ccc(C(c4ccc(Cl)cc4)c4ccc(Cl)cc4)cc23)cc1 [Compound 521, 6-[Bis(4-chlorophenyl)methyl]-4-{(E)-2-[4-(trifluoromethyl)phenyl]-ethenyl}quinoline] |
| 7.66 | 5.11 | O=c1cc(NC2CCN(S(=O)(=O)C(F)(F)F)CC2)c2cc(C(c3ccc(O)cc3)c3ccc(Cl)cc3)ccc2[nH]1 (stereo not drawn) [Compound #66, 6-((4-chlorophenyl)(4-hydroxyphenyl)methyl)-4-((1-((trifluoromethyl)sulfonyl)piperidin-4-yl)amino)quinolin-2(1H)-one] |
| 5.86 | < 5.00 | O=c1cc(/C=C/c2cccc(F)c2)c2cc(C(c3ccc(Cl)cc3)c3ccc(Cl)s3)ccc2[nH]1 (stereo not drawn) [Compound 30, 6-[(4-Chlorophenyl)(5-chlorothiophen-2-yl)methyl]-4-[(E)-2-(3-fluorophenyl)ethenyl]quinolin-2(1H)-one] |
| 6.06 | < 5.00 | O=C(O)c1ccc(CN2CCC(Nc3cc(=O)[nH]c4ccc(C(c5ccc(Cl)cc5)c5ccc(Cl)cc5)cc34)CC2)cc1 [Compound 127, 4-{[4-({6-[Bis(4-chlorophenyl)methyl]-2-oxo-1,2-dihydroquinolin-4-yl}amino)piperidin-1-yl]methyl}benzoic acid] |
| 7.44 | < 4.38 | COC/C=C/c1cc(C(c2ccc(Cl)cc2)c2ccc(Cl)cc2)cc2c(NC3CCN(S(=O)(=O)C(F)(F)F)CC3)cc(OC)nc12 [Compound 547, 6-(bis(4-chlorophenyl)methyl)-2-methoxy-8-(3-methoxyprop-1-en-1-yl)-N-(1-((trifluoromethyl)sulfonyl)piperidin-4-yl)quinolin-4-amine] |
| 7.29 | 5.06 | NC(=O)CCCCOc1cc(C(c2ccc(Cl)cc2)c2ccc(Cl)cc2)cc2c(NC3CCN(S(=O)(=O)C(F)(F)F)CC3)ccnc12 [Compound 538, 5-((6-(bis(4-chlorophenyl)methyl)-4-((1-((trifluoromethyl)sulfonyl)piperidin-4-yl)amino)quinolin-8-yl)oxy)pentanamide] |
| 6.64 | < 5.48 | O=c1cc(N[C@H]2CCN(S(=O)(=O)C(F)(F)F)C2)c2cc(C(c3ccc(Cl)cc3)c3nccs3)ccc2[nH]1 (stereo partly drawn) [Compound 48, 6-[(4-Chlorophenyl)(1,3-thiazol-2-yl)methyl]-4-({(3S)-1-[(trifluoromethyl)sulfonyl]-pyrrolidin-3-yl}amino)quinolin-2(1H)-one] |
| 6.30 | < 5.00 | O=c1cc(/C=C/c2cccc(F)c2)c2cc(C(c3ccc(Cl)cc3)c3nccs3)ccc2[nH]1 (stereo not drawn) [Compound 38, (E)-6-((4-chlorophenyl)(thiazol-2-yl)methyl)-4-(3-fluorostyryl)quinolin-2(1H)-one] |
| 7.10 | 5.09 | NC(=O)Cc1ccc(Nc2cc(=O)[nH]c3ccc(C(c4ccc(Cl)cc4)c4ccc(Cl)cc4)cc23)cc1 [Compound 126, 2-[4-({6-[Bis(4-chlorophenyl)methyl]-2-oxo-1,2-dihydroquinolin-4-yl}amino)phenyl]acetamide] |
| 8.22 | < 5.00 | O=c1cc(NC2CCN(c3ccccn3)CC2)c2cc(C(c3ccc(Cl)cc3)c3ccc(Cl)cc3)ccc2[nH]1 [Compound 68, 6-[Bis(4-chlorophenyl)methyl]-4-[(1-pyridin-2-ylpiperidin-4-yl)amino]quinolin-2(1H)-one] |
| 6.52 | 5.17 | Cc1ccc(Nc2cc(=O)[nH]c3ccc(C(c4ccc(Cl)cc4)c4ccc(Cl)cc4)cc23)cn1 [Compound 134, 6-[Bis(4-chlorophenyl)methyl]-4-[(6-methylpyridin-3-yl)amino]quinolin-2(1H)-one] |
| 7.82 | < 5.00 | O=c1cc(NC2CCN(S(=O)(=O)N3CCCC3)CC2)c2cc(C(c3ccc(Cl)cc3)c3ccc(Cl)cc3)ccc2[nH]1 [Compound 81, 6-(bis(4-chlorophenyl)methyl)-4-((1-(pyrrolidin-1-ylsulfonyl)piperidin-4-yl)amino)quinolin-2(1H)-one] |
| 8.00 | 6.08 | O=c1cc(NC2CCN(S(=O)(=O)C(F)(F)F)CC2)c2cc(C(c3ccc(Cl)cc3)c3ccc4c(c3)OCO4)ccc2[nH]1 (stereo not drawn) [Compound 55, 6[1,3-Benzodioxo1-5-yl(4-chlorophenyl)methyl]-4-({1-[(trifluoromethyl)sulfonyl]-piperidin-4-yl}amino)quinolin-2(1H)-one] |
| 7.04 | 7.22 | O=C(O)CCCCCOc1cc(NC2CCN(S(=O)(=O)C(F)(F)F)CC2)c2cc(C(c3ccc(Cl)cc3)c3ccc(Cl)cc3)ccc2n1 [Compound 535, 6-({6-[Bis(4-chlorophenyl)methyl]-4-({1-[(trifluoromethyl)sulfonyl]-piperidin-4-yl}amino)quinolin-2-yl}oxy)hexanoic acid] |
| 7.82 | < 5.00 | O=c1cc(NC2CCN(S(=O)(=O)C3CC3)CC2)c2cc(C(c3ccc(Cl)cc3)c3ccc(Cl)cc3)ccc2[nH]1 [Compound 67, 6-[Bis(4-chlorophenyl)methyl]-4-{[1-(cyclopropylsulfonyl)piperidin-4-yl]amino}quinolin-2(1H)-one] |
| 6.77 | < 5.00 | O=c1cc(NCc2ccc(C(F)(F)F)cn2)c2cc(C(c3ccc(Cl)cc3)c3ccc(Cl)cc3)ccc2[nH]1 [Compound 78, 6-[Bis(4-chlorophenyl)methyl]-4-({[5-(trifluoromethyl)pyridin-2-yl]methyl}amino)quinolin-2(1H)-one] |
| 5.95 | < 5.00 | CCOC(=O)CCCNc1cc(C(c2ccc(Cl)cc2)c2ccc(Cl)cc2)cc2c(NC3CCN(S(=O)(=O)C(F)(F)F)CC3)cc(=O)[nH]c12 [Compound 104, Ethyl 4-({6-[bis(4-chlorophenyl)methyl]-2-oxo-4-({1-[(trifluoromethyl)sulfonyl]-piperidin-4-yl}amino)-1,2-dihydroquinolin-8-yl}amino)butanoate] |
| 5.96 | 5.17 | O=c1cc(NC2CCN(S(=O)(=O)C(F)(F)F)CC2)c2cc(C(Cc3ccc(F)cc3)c3ccc(Cl)cc3)ccc2[nH]1 (stereo not drawn) [Compound #135, 6-(1-(4-chlorophenyl)-2-(4-fluorophenyl)ethyl)-4-((1-((trifluoromethyl)sulfonyl)piperidin-4-yl)amino)quinolin-2(1H)-one] |
| 7.89 | 7.22 | COCCCc1cc(C(c2ccc(Cl)cc2)c2ccc(Cl)cc2)cc2c(NC3CCN(S(=O)(=O)C(F)(F)F)CC3)cc(=O)[nH]c12 [Compound 140, 6-(bis(4-chlorophenyl)methyl)-8-(3-methoxypropyl)-4-((1-((trifluoromethyl)sulfonyl)piperidin-4-yl)amino)quinolin-2(1H)-one] |
| 5.38 | < 5.00 | O=c1cc(/C=C/c2ccccc2)c2cc(C(c3ccc(Cl)cc3)c3cccs3)ccc2[nH]1 (stereo not drawn) [Compound 21, 6-[(4-Chlorophenyl)(thiophen-2-yl)methyl]-4-[(E)-2-phenylethenyl]quinolin-2(1H)-one] |
| 6.51 | 6.34 | O=C(O)CCCNc1cc(C(c2ccc(Cl)cc2)c2ccc(Cl)cc2)cc2c(NC3CCN(S(=O)(=O)C(F)(F)F)CC3)cc(=O)[nH]c12 [Compound 108, 4-((6-(bis(4-chlorophenyl)methyl)-2-oxo-4-((1-((trifluoromethyl)sulfonyl)piperidin-4-yl)amino)-1,2-dihydroquinolin-8-yl)amino)butanoic acid] |

| Compound | pEC50 [1] | pEC50 [2] |
| --- | --- | --- |
| O=c1cc(NC2CCN(S(=O)(=O)C(F)(F)F)CC2)c2cc(C(c3ccc(Cl)cc3)c3ccc(Cl)cc3)cc(NC3CCN(S(=O)(=O)C(F)(F)F)CC3)c2[nH]1 [Compound 99] | < 5.00 | < 5.00 |
